Reference: US9232796B2, “Herbicidal compositions comprising 4-amino-3-chloro-5-fluoro-6-(4-chloro-2-fluoro-3-methoxyphenyl) pyridine-2-carboxylic acid or a derivative thereof and acetyl-CoA carboxylase (ACCase) inhibitors” (DOW AGROSCIENCES LLC, priority 2012, dated 2016)

Columns and labels:
ECHOR [1] = test: Example V (second) postemergence foliar-applied ternary mixtures, greenhouse, direct seeded rice weeds; assay type: in vivo, Echinochloa oryzoides (Ard.) Fritsch
Description: Seeds or nutlets of the desired test plant species were planted in a soil matrix prepared by mixing a sandy loam or loam soil (e.g., 32 percent silt, 23 percent clay, and 45 percent sand, with a pH of about 6.5 and an organic matter content of about 1.9 percent) and calcareous grit in an 80 to 20 ratio. The soil matrix was contained in plastic pots with a volume of 1 quart and a surface area of 83.6 square centimeters (cm^2). […] The plants were grown for 8-22 days in a greenhouse with an approximate 14 hr. photoperiod which was maintained at about 29° C. during the day and 26° C. during the night. Nutrients (Peters Excel® 15-5-15 5-Ca 2-Mg and iron chelate) were applied in the irrigation solution as needed and water was added on a regular basis. Supplemental lighting was provided with overhead metal halide 1000-Watt lamps as necessary. The plants were employed for testing when they reached the first through fourth true leaf stage.
(§1) Treatments consisted of the benzyl ester of 4-amino-3-chloro-5-fluoro-6-(4-chloro-2-fluoro-3-methoxy-phenyl)pyridine-2-carboxylic acid (Compound A), formulated as an SC (suspension concentrate), an ACCase inhibitor, and a third herbicidal component, each applied alone and in ternary combination. Forms of compound A were applied on an acid equivalent basis.
(§2) For treatments comprised of formulated compounds, measured amounts of compounds were placed individually in 25 mL glass vials and diluted in a volume of 1.25% (v/v) Agri-Dex® crop oil concentrate to obtain 12× stock solutions. […] Application solutions were prepared by adding an appropriate amount of each stock solution (e.g., 1 mL) and diluted to the appropriate final concentrations with the addition of 9 mL of an aqueous mixture of 1.25% (v/v) crop oil concentrate so that the final spray solutions contained 1.25% (v/v) crop oil concentrate.
(§3) As required, additional water and/or 97:3 v/v acetone/DMSO was added to individual application solutions so that the final acetone and DMSO concentrations of the application solutions being compared were 8.1% and 0.25%, respectively.
(§4) All stock solutions and applications solutions were visually inspected for compound compatibility prior to application. Spray solutions were applied to the plant material with an overhead Mandel track sprayer equipped with a 8002E nozzles calibrated to deliver 187 L/ha over an application area of 0.503 m^2 at a spray height of 18 inches (46 cm) above average plant canopy height. Control plants were sprayed in the same manner with the solvent blank.
(§5) The treated plants and control plants were placed in a greenhouse as described above and watered by sub-irrigation to prevent wash-off of the test compounds. After approximately 3 weeks, the condition of the test plants as compared with that of the untreated plants was determined visually and scored on a scale of 0 to 100 percent where 0 corresponds to no injury or growth inhibition and 100 corresponds to complete kill.
(§6) Colby's equation was used to determine the herbicidal effects expected from the mixtures (Colby, S. R. 1967. Calculation of the synergistic and antagonistic response of herbicide combinations. Weeds 15:20-22.).
The following equation was used to calculate the expected activity of mixtures containing three active ingredients, A, B, and C: Expected=A+B+C−((A×B+A×C+B×C)/100)+(A×B×C/10000)

ECHCG = test: as above; assay type: in vivo, Echinochloa crus-galli (L.) Beauv.
Excerpt: Seeds or nutlets of the desired test plant species were planted in a soil matrix prepared by mixing a sandy loam or loam soil (e.g., 32 percent silt, 23 percent clay, and 45 percent sand, with a pH of about 6.5 and an organic matter content of about 1.9 percent) and calcareous grit in an 80 to 20 ratio. The soil matrix was contained in plastic pots with a volume of 1 quart and a surface area of 83.6 square centimeters (cm^2). When required to ensure good germination and healthy plants, a fungicide treatment and/or other chemical or physical treatment was applied. The plants were grown for 8-22 days in a greenhouse with an approximate 14 hr. photoperiod which was maintained at about 29° C. during the day and 26° C. during the night. Nutrients (Peters Excel® 15-5-15 5-Ca 2-Mg and iron chelate) were applied in the irrigation solution as needed and water was added on a regular basis. Supplemental lighting was provided with overhead metal halide 1000-Watt lamps as necessary. The plants were employed for testing when they reached the first through fourth true leaf stage.
as §1
The ACCase inhibitor component was applied on an active ingredient basis and included cyhalofop-R-butyl formulated as Clincher® SF, fenoxaprop-p-ethyl formulated as RiceStar® HT, and profoxydim formulated as Aura® 20EC. Other herbicidal components were applied on an active ingredient or acid equivalent basis depending on the compound and included penoxsulam formulated as Grasp® SC, bentazon sodium formulated as Basagran®, triclopyr […] (TEA) salt formulated as Grandstand® R, bispyribac sodium formulated as Regiment® 80WP, imazamox ammonium formulated as Beyond®, benzobicyclon, quinclorac formulated as Facet® 75DF, glyphosate dimethylammonium (DMA) salt formulated as Durango® DMA, glufosinate ammonium formulated as Ignite® 280, fentrazamide formulated as an emulsifiable concentrate (EC), propyrisulfuron formulated as Zeta One®, and indanofan (technical grade material).
(§7) Treatment requirements were calculated based upon the rates being tested, the concentration of active ingredient or acid equivalent in the formulation, and a 12 mL application volume at a rate of 187 L/ha.
as §2, §3, §4
The treated plants and control plants were placed in a greenhouse as described above and watered by sub-irrigation to prevent wash-off of the test compounds. […]

CYPRO = test: Example II in-water applied, greenhouse, transplanted paddy rice weeds; assay type: in vivo, Cyperus rotundus L.
Description: (§8) Weed seeds or nutlets of the desired test plant species were planted in puddled soil (mud) prepared by mixing a shredded, non-sterilized mineral soil (50.5 percent silt, 25.5 percent clay, and 24 percent sand, with a pH of about 7.6 and an organic matter content of about 2.9 percent) and water at a 1:1 volumetric ratio. The prepared mud was dispensed in 365 mL aliquots into 16-ounce (oz.) non-perforated plastic pots with a surface area of 86.59 square centimeters (cm^2) leaving a headspace of 3 centimeters (cm) in each pot. Mud was allowed to dry overnight prior to planting or transplanting. Rice seeds were planted in Sun Gro MetroMix® 306 planting mixture, which typically has a pH of 6.0 to 6.8 and an organic matter content of about 30 percent, in plastic plug trays. Seedlings at the second or third leaf stage of growth were transplanted into 860 mL of mud contained in 32-oz. non-perforated plastic pots with a surface area of 86.59 cm^2 4 days prior to herbicide application. The paddy was created by filling the headspace of the pots with 2.5 to 3 cm of water. […] The plants were grown for 4-22 days in a greenhouse with an approximate 14 hr. photoperiod which was maintained at about 29° C. during the day and 26° C. during the night. Nutrients were added as Osmocote® (19:6:12, N:P:K+minor nutrients) at 2 g per 16-oz. pot and 4 g per 32-oz. pot. Water was added on a regular basis to maintain the paddy flood, and supplemental lighting was provided with overhead metal halide 1000-Watt lamps as necessary. The plants were employed for testing when they reached the first through fourth true leaf stage.
(§9) Treatments consisted of the acid or esters of 4-amino-3-chloro-5-fluoro-6-(4-chloro-2-fluoro-3-methoxy-phenyl)pyridine-2-carboxylic acid (compound A) each formulated as an SC (suspension concentrate) and various herbicidal components alone and in combination.
(§10) For formulated compounds, a measured amount was placed in an individual 100 or 200 mL glass vial and was dissolved in a volume of 1.25% (v/v) Agri-Dex® crop oil concentrate to obtain application solutions.
(§11) Applications were made by injecting with a pipetter appropriate amounts of the application solutions, individually and sequentially, into the aqueous layer of the paddy. Control plants were treated in the same manner with the solvent blank. Applications were made so that all treated plant material received the same concentrations of acetone and crop oil concentrate.
as §5, with “water was added as needed” for “watered by sub-irrigation”, “maintain a paddy flood.” for “prevent wash-off of the test compounds.”, “weeks” for “weeks,”
as §6
(§12) The following equation was used to calculate the expected activity of mixtures containing two active ingredients, A and B: Expected=A+B−(A×B/100)

ECHOR [2] = test: as above; assay type: in vivo, Echinochloa oryzoides (Ard.) Fritsch; conditions: in-water
Description: as §8, §9, §10, §11
as §5, with “water was added as needed” for “watered by sub-irrigation”, “maintain a paddy flood.” for “prevent wash-off of the test compounds.”, “weeks” for “weeks,”
as §6, §12

IPOHE = test: Example I postemergence foliar-applied, greenhouse, direct seeded rice weeds; assay type: in vivo, Ipomoea hederacea Jacq.
Excerpt: Seeds or nutlets of the desired test plant species were planted in a soil matrix prepared by mixing a loam or sandy loam soil (e.g., 28.6 percent silt, 18.8 percent clay, and 52.6 percent sand, with a pH of about 5.8 and an organic matter content of about 1.8 percent) and calcareous grit in an 80 to 20 ratio. The soil matrix was contained in plastic pots with a volume of 1 quart and a surface area of 83.6 square centimeters (cm^2). When required to ensure good germination and healthy plants, a fungicide treatment and/or other chemical or physical treatment was applied. The plants were grown for 8-22 days in a greenhouse with an approximate 14 hr. photoperiod which was maintained at about 29° C. during the day and 26° C. during the night. Nutrients (Peters Excel® 15-5-15 5-Ca 2-Mg and iron chelate) were applied in the irrigation solution as needed and water was added on a regular basis. Supplemental lighting was provided with overhead metal halide 1000-Watt lamps as necessary. The plants were employed for testing when they reached the first through fourth true leaf stage.
Treatments consisted of the acid or esters of 4-amino-3-chloro-5-fluoro-6-(4-chloro-2-fluoro-3-methoxy-phenyl)pyridine-2-carboxylic acid (Compound A), each formulated as an SC (suspension concentrate), and various herbicidal components alone and in combination.
Other herbicidal components were applied on an acid equivalent (ae) or active ingredient (ai) basis and included acetyl coA carboxylase (ACCase)-inhibiting herbicides (cyclohexanedione and aryloxyphenoxypropionate chemical classes) cyhalofop-butyl formulated as Clincher® SF (285 gr ai/L EC), diclofop-methyl formulated as Hoelon® 3EC, fenoxaprop-p-ethyl+isoxadifen-ethyl formulated as RiceStar® HT (0.58 lb./gal EC), fenoxaprop-p-ethyl+mefenpyr diethyl formulated as Puma® IEC, metamifop formulated as Metamifop EC, haloxyfop-methyl formulated as Gallant Super®, fluazifop-p-butyl formulated as Fusilade® DX, quizalofop-p-ethyl formulated as Assure® II, profoxydim formulated as Aura® 20EC, clethodim applied as Intensity®, sethoxydim formulated as Poast®, and tralkoxydim formulated as Achieve®.
as §7
as §2, with “crop oil concentrated to obtain” for “crop oil concentrate to obtain”, “addition of 10 mL of” for “addition of 9 mL of”, “solutions contained 1.25+/−0.05% (v/v) crop” for “solutions contained 1.25% (v/v) crop”
All stock solutions and applications solutions were visually inspected for compound compatibility prior to application. Spray solutions were applied to the plant material with an overhead Mandel track sprayer equipped with a 8002E nozzles calibrated to deliver 187 L/ha over an application area of 0.503 m^2 at a spray height of 18 to 20 inches (46 to 50 cm) above average plant canopy height. Control plants were sprayed in the same manner with the solvent blank.
as §5, with “kill. […]” for “kill.”

CCN(C(=O)n1nnn(-c2ccccc2Cl)c1=O)C1CCCCC1 [Fentrazamide]
Visual Weed Control (%)- 22 DAA ECHOR Obs (ECHOR [1]; 33.75 gai/ha): 3%
Visual Weed Control (%)- 22 DAA ECHOR Obs (ECHOR [1]; 67.5 gai/ha): 0%
Visual Weed Control (%) - 22 DAA ECHCG Obs (ECHCG; 33.75 gai/ha): 0%
Visual Weed Control (%) - 22 DAA ECHCG Obs (ECHCG; 67.5 gai/ha): 0%

CCCCOC(=O)[C@@H](C)Oc1ccc(Oc2ccc(C(F)(F)F)cn2)cc1 [Fluazifop-p-butyl, butyl(2R)-2-[4-[[5-(trifluoromethyl)-2-pyridinyl]oxy]phenoxy]propanoate, reference compound]
Visual Weed Control (%) - 21 DAA CYPRO Obs (CYPRO; Fluazifop-P-butyl 90 gae/ha): 0%
Visual Weed Control (%) - 21 DAA CYPRO Obs (CYPRO; Fluazifop-P-butyl 180 gae/ha): 0%
Visual Weed Control (%) - 21 DAA ECHOR Obs (ECHOR [2]; 45 gai/ha): 0%
Visual Weed Control (%) - 21 DAA ECHOR Obs (ECHOR [2]; Fluazifop-P-butyl 90 gae/ha): 25%
Visual Weed Control (%) - 19 DAA IPOHE Obs (IPOHE; 45 gae/ha): 0%
Visual Weed Control (%) - 19 DAA IPOHE Obs (IPOHE; 90 gae/ha): 0%
Visual Weed Control (%) - 19 DAA IPOHE Obs (IPOHE; 180 gae/ha): 0%

CCCc1ccc2nc(Cl)c(S(=O)(=O)NC(=O)Nc3nc(OC)cc(OC)n3)n2n1 [Propyrisulfuron]
Visual Weed Control (%) - 22 DAA ECHOR Obs (ECHOR [1]; 22.5 gai/ha): 55%
